Values joined by “and” are separate entries in the source; they are usually repeats but may differ in a detail not shown here. Identical values can stand only once. Active and inactive are the calls of the source.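 How the source made its calls: active means compounds cutting yeast growth whose half-maximal concentration is at most twice their top valid dose; inconclusive means flat growth loss of 30 to 70 percent, or poor fit; inactive means the rest.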
system: Candida glabrata growth in glycerol, OD600, 48 h; test: antifungal activity against respiring C. glabrata – glycerol medium, OD600, powder samples, set 2, dose response (AID 623903); conditions: not given

Compound	AC50
CCOC(=O)N1C(=O)C2(CCCCC2)N(c2ccccc2C)C1=S	541 nM
CCOC(=O)N1C(=O)C2(CCCCC2)N(c2ccc(OC)cc2)C1=S	255 nM
COC(=O)N1C(=O)C2(CCCCC2)N(c2ccc(C)cc2)C1=S	136 nM
CCOC(=O)N1C(=O)C2(CCC2)N(c2ccc(C)cc2)C1=S	2510 nM
CCOC(=O)N1C(=O)C2(CCCCC2)N(Cc2ccccc2)C1=S	< 23.5 nM
CCOC(=O)N1C(=O)C2(CCCC2)N(c2ccc(C)cc2)C1=S	315 nM
CCCOC(=O)N1C(=O)C2(CCCCC2)N(c2ccc(C)cc2)C1=S	95.3 nM
CCOC(=O)N1C(=O)C2(CCCCC2)N(c2ccc(C#N)cc2)C1=S	67.2 nM
CCOC(=O)N1C(=O)C2(CCCCC2)N(c2ccc(C(F)(F)F)cc2)C1=S	44.3 nM
CCOC(=O)N1C(=O)C2(CCCCC2)N(c2ccc(F)cc2)C1=S	< 23.5 nM
CCOC(=O)N1C(=O)C2(CCCCC2)N(C(C)C)C1=S	2750 nM
CCOC(=O)N1C(=O)C2(CCCCC2)N(c2ccc(C(C)(C)C)cc2)C1=S	1980 nM
CCOC(=O)N1C(=O)C2(CCCCC2)N(c2ccc(C)cc2)C1=S	56.4 nM and 45.2 nM
CCOC(=O)N1C(=O)C2(CCCCC2)N(c2ccc(CC)cc2)C1=S	133 nM
CCOC(=O)N1C(=O)C2(CCCCC2)N(c2ccccc2)C1=S	28.9 nM
CCCCN1C(=O)N(c2ccc(C)cc2)C2(CCCCC2)C1=S	> 12000 nM (inactive)
CCOC(=O)N1C(=O)C2(CCCCC2)N(c2ccc(C(C)C)cc2)C1=S	829 nM
CCOC(=O)N1C(=O)C2(CCCCC2)N(c2ccc(-c3ccccc3)cc2)C1=S	242 nM
Cc1ccc(N2C(=S)N(C(=O)OCc3ccccc3)C(=O)C23CCCCC3)cc1	5540 nM
CCCCN1C(=O)C2(CCCCC2)N(c2ccc(C)cc2)C1=S	> 12000 nM (inactive)
CCOC(=O)N1C(=O)C2(CCCCC2)N(c2cccc(C)c2)C1=S	86.6 nM
CCCc1ccc(N2C(=S)N(C(=O)OCC)C(=O)C23CCCCC3)cc1	629 nM
Cc1ccc(N2C(=S)NC(=O)C23CCOCC3)cc1	> 12000 nM (inactive)
CCOC(=O)N1C(=S)N(c2ccc(C)cc2)C2(CCCCC2)C1=NCc1ccccc1	3750 nM
CCOC(=O)N1C(=O)C2(CCCCC2)N(c2ccc(Cl)cc2)C1=S	< 23.5 nM
Cc1ccc(N2C(=S)N(C(=O)OC(C)C)C(=O)C23CCCCC3)cc1	638 nM
CC1/C=C/C=C\C=C\C=C\C=C\C=C\C=C\C(O[C@H]2OC(C)C(O)C(N)C2O)CC2OC(O)(CC(O)CC(O)C(O)CCC(O)CC(O)CC(=O)OC(C)C(C)C1O)CC(O)C2C(=O)O (stereo partly drawn)	205 nM
CCCC(=O)N1C(=O)C2(CCCCC2)N(c2ccc(C)cc2)C1=S	102 nM
CCOC(=O)N1C(=O)C2(CCOCC2)N(c2ccc(C)cc2)C1=S	1480 nM

system: not listed separately; test: as above; conditions: Candida glabrata growth in glycerol, OD600, 48 h; at 6 µM (top of the series)

Compound	growth change, negative = inhibition
CCCCN1C(=O)N(c2ccc(C)cc2)C2(CCCCC2)C1=O	-2.19% (inactive)
CCOC(=O)N1C(=S)NC(=O)C12CCCCC2	11.1% (inactive)
Cc1ccc(N2C(=S)NC(=O)C23CCC3)cc1	3.27% (inactive)
Cc1ccc(N2CC(=O)NC2=O)cc1	28.9% (inactive)
Cc1ccc(N2C(=S)NC(=O)C23CCCCC3)cc1	-3.05% (inactive)
Cc1ccc(N2CC(=O)NC2=S)cc1	3.32% (inactive)
Cc1ccc(N2C(=S)N(S(C)(=O)=O)C(=O)C23CCCCC3)cc1	1.2% (inactive)
O=C1NC(=S)N(Cc2ccccc2)C12CCCCC2	-0.552% (inactive)
Cc1ccc(N2C(=S)NC(=O)C2(C)C)cc1	-2.42% (inactive)
O=C1NC(=S)N(c2ccc(F)cc2)C12CCCCC2	-17.4% (inactive)
CCOC(=O)N1C(=O)C2(CCCCC2)NC1=S	-2.7% (inactive)
Cc1ccc(N2C(=O)C3(CCCCC3)NC2=S)cc1	5.63% (inactive)
Cc1ccc(N2C(=O)C(=O)NC2=S)cc1	19.6% (inactive)
Cc1ccc(N2C(=S)N(C)C(=O)C23CCCCC3)cc1	-20.3% (inactive)
CC(C)N1C(=S)NC(=O)C12CCCCC2	5.61% (inactive)
CCOC(=O)N1C(=O)C(C)(C)N(c2ccc(C)cc2)C1=S	-13.4% (inactive)
CCOC(=O)N1C(=S)N(c2ccc(C)cc2)C(=O)C12CCCCC2	14.3% (inactive)
Cc1ccc(N2C(=O)N(C)C(=O)C23CCCCC3)cc1	24.2% (inactive)
Cc1ccc(N2C(=O)NC(=O)C23CCCCC3)cc1	44.5% (inactive)
O=C1NC(=S)NC12CCCCC2	10.1% (inactive)
Cc1ccc(N2C(=S)NC(=O)C23CCCC3)cc1	-31.4% (inactive)
O=C1NC(=S)N(c2ccccc2)C12CCCCC2	21.1% (inactive)
CCOC(=O)N1C(=O)N(c2ccc(C)cc2)C2(CCCCC2)C1=O	-38.8% (inactive)
Cc1ccc(N2C(=S)N(C(=O)Oc3ccccc3)C(=O)C23CCCCC3)cc1	-4.17% (inactive)
